Laboratory results: US20250163057A1, “DCN-1 MODULATING COMPOUNDS AND METHODS OF USE THEREOF” (Cellarity, Inc., priority 2023, published 2025)
Where a name gives a salt, the structure may show the parent alone. Read-outs that look alike come from different tables or passages of the source.

Columns and labels:
[1] = molecular target: DCN1 (DCUND1) protein PONY domain (Homo sapiens (Human), UniProt Q96GG9); experiment: TR-FRET assay, DCN1 binding with FAM-labeled probe
Summary of the method: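 TR-FRET ratio (Tb-DCN1 to FAM-probe) read at 1, 5 and 24 hrs after compound addition. Protein: recombinant PONY domain from E. coli, biotinylated and coupled to streptavidin terbium. Either 5 nM DCN1 with 20 nM FAM-probe, or 0.31 nM DCN1 with 100 nM FAM-labelled plus 800 nM unlabelled probe.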

[2] = test system: Cullin-3 (CUL3) neddylation; experiment: AlphaLISA assay for Cullin-3 (CUL3) neddylation in TF 1 cells; assay type: cell-based; conditions: Homo sapiens, TF-1, 3 h, 3 hours treatment
Summary of the method: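 Neddylated CUL3 was quantified by AlphaLISA in lysates of TF 1 cells exposed for 3 h to test compound in IMDM without supplements. Percent inhibition set between vehicle and 1 μM DI-1548 positive control; IC50 derived by Hill-equation fitting of dose-response curves.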

[3] = 24 hr after treatment with compound, read-out: TR FRET IC50 24 hr
[4] = TR FRET IC50 1 hr (nM), 1 hr after treatment with compound

Sequence of DCN1 (DCUND1) protein PONY domain (Q96GG9 60-248): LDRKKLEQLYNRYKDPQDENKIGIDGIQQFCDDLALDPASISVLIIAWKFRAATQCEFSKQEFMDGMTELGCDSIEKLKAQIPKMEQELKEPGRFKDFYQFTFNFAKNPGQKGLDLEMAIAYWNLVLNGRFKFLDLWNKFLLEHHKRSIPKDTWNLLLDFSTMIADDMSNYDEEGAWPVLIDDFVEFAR

Structure (SMILES) | IC50 [1, 3] [nM] | IC50 [1, 4] [nM] | IC50 [2] [µM] | IC50 ([1]; read-out: TR FRET IC50 1 hr, 1 hr after treatment with compound) [nM]
C#C[C@@H]1CCCN1C(=O)c1nn(C2CCOCC2)c2c1[C@H](C1CC1)[C@H](NC(=O)c1cccc(C(F)(F)F)c1)C(=O)N2CC [Compound I-594] | 1000 to 3000 | 1000 to 3000 | > 1 | –
CCN1C(=O)[C@@H](NC(=O)Cc2ccccc2)[C@@H](C2CC2)c2c(C(=O)N3[C@H](C#N)C[C@H]4C[C@H]43)nn(C3CCOCC3)c21 [Compound I-595] | 1000 to 3000 | 1000 to 3000 | > 1 | –
CCN1C(=O)[C@H](NC(=O)c2cccc(C(F)(F)F)c2)[C@@H](c2ccc(F)cc2)c2c(CN3C(=O)CC[C@H]3C#N)nn(-c3ccccc3)c21 [Compound I-596, N-((4S,5R)-3-(((S)-2-cyano-5-oxopyrrolidin-1-yl)methyl)-7-ethyl-4-(4-fluorophenyl)-6-oxo-1-phenyl-4,5,6,7-tetrahydro-1H-pyrazolo[3,4-b]pyridin-5-yl)-3-(trifluoromethyl)benzamide] | 1000 to 3000 | 1000 to 3000 | > 1 | –
CCN1C(=O)[C@H](NC(=O)c2cccc(C(F)(F)F)c2)[C@H](c2ccc(F)cc2)c2c([C@@H](C)NC#N)nn(C3CCOCC3)c21 [Compound I-597] | 1000 to 3000 | 1000 to 3000 | > 1 | –
CCN1C(=O)[C@H](NC(=O)c2cccc(C(F)(F)F)c2)[C@H](C)c2c(C(=O)N3[C@H](C#N)C[C@H]4C[C@H]43)nn(C3CCOCC3)c21 [Compound I-599] | 1000 to 3000 | 1000 to 3000 | 0.1 to 1 | –
CCN1C(=O)[C@@H](NC(=O)c2ccc3c(c2)COC3)[C@@H](C2CC2)c2c(C(=O)N3[C@H](C#N)C[C@H]4C[C@H]43)nn(C3CCOCC3)c21 [Compound I-600] | ≤ 200 | 200 to 1000 | ≤ 0.1 | –
CCN1C(=O)[C@@H](NC(=O)c2ccc3ocnc3c2)[C@@H](C2CC2)c2c(C(=O)N3[C@H](C#N)C[C@H]4C[C@H]43)nn(C3CCOCC3)c21 [Compound I-601] | 200 to 1000 | 1000 to 3000 | 0.1 to 1 | –
CCN1C(=O)[C@@H](NC(=O)c2cccc3[nH]ncc23)[C@@H](C2CC2)c2c(C(=O)N3[C@H](C#N)C[C@H]4C[C@H]43)nn(C3CCOCC3)c21 [Compound I-602] | 1000 to 3000 | 1000 to 3000 | > 1 | –
CCN1C(=O)[C@@H](NC(=O)c2cccc(C(F)(F)F)c2)[C@@H](c2ccc(F)cc2)c2c(CN(C)C/C=C/C(=O)OC(C)(C)C)nn(-c3ccccc3)c21 [Compound I-604, tert-butyl (E)-4-((((4S,5S)-7-ethyl-4-(4-fluorophenyl)-6-oxo-1-phenyl-5-(3-(trifluoromethyl)benzamido)-4,5,6,7-tetrahydro-1H-pyrazolo[3,4-b]pyridin-3-yl)methyl)(methyl)amino)but-2-enoate] | 1000 to 3000 | 1000 to 3000 | > 1 | –
C=CC(=O)N[C@H](C)c1nn(-c2ccccc2)c2c1[C@H](c1ccc(F)cc1)[C@@H](NC(=O)c1nccc(C(F)(F)F)n1)C(=O)N2CC [Compound I-605] | 1000 to 3000 | 1000 to 3000 | > 1 | –
CCN1C(=O)[C@@H](NC(=O)c2cccc(C(F)(F)F)c2)[C@@H](c2ccc(F)cc2)c2c(CN(C)C/C=C/C(=O)N3CCCC3)nn(-c3ccccc3)c21 [Compound I-606] | 200 to 1000 | 200 to 1000 | > 1 | –
CCN1C(=O)[C@@](CO)(NC(=O)c2cccc(C(F)(F)F)c2)[C@@H](c2ccc(F)cc2)c2c([C@@H](C)NC#N)nn(-c3ccccc3)c21 [Compound I-608] | ≤ 200 | 1000 to 3000 | > 1 | –
CCN1C(=O)[C@H](NC(=O)c2cccc(C(F)(F)F)c2)[C@@H](c2ccc(F)cc2)c2c([C@@H](C)N(C#N)CCCN(C)C)nn(-c3ccccc3)c21 [Compound I-609, N-((4S,5R)-3-((R)-1-(N-(3-(dimethylamino)propyl)cyanamido)ethyl)-7-ethyl-4-(4-fluorophenyl)-6-oxo-1-phenyl-4,5,6,7-tetrahydro-1H-pyrazolo[3,4-b]pyridin-5-yl)-3-(trifluoromethyl)benzamide formate] | ≤ 200 | – | > 1 | ≤ 200
CCN1C(=O)[C@H](NC(=O)c2cccc(C(F)(F)F)c2)[C@H](c2ccc(F)cc2)c2c(C(=O)N3CCC[C@H]3C#N)nn(-c3ccccc3)c21 [Compound I-611] | 1000 to 3000 | 1000 to 3000 | > 1 | –
CCN1C(=O)[C@@H](NC(=O)c2cccc(C(F)(F)F)c2)[C@@H](c2ccc(F)cc2)c2c(CN(C#N)CCCN3CCN(C4COC4)CC3)nn(-c3ccccc3)c21 [Compound I-614] | ≤ 200 | 200 to 1000 | ≤ 0.1 | –
